Measured values published in patent US12583826B2, “[(1,5-diphenyl-1H-1,2,4-triazol-3-yl)oxy]acetic acid derivatives and salts thereof, crop protection compositions comprising them, methods for producing them and use thereof as safeners” (Bayer Aktiengesellschaft, priority 2019, dated 2026).

Legend:
[1] = system: summer wheat (TRZAS; cv. Triso); experiment: Absolute action: reduction of damage by mesosulfuron-methyl on summer wheat, greenhouse post-emergence; format: in vivo; details: for Absolute reduction in herbicide damage (damage without safener minus damage with safener): mesosulfuron-methyl 20 g/ha; for Herbicide damage with compound of the formula (I): then mesosulfuron-methyl 20 g/ha, visual 0-100% scale, 14-21 days after application
Procedure: (§1) 2.1 Absolute Action of Selected Compounds of the Invention Using the Example of Reduction of Damage by Mesosulfuron-Methyl on Summer Wheat (TRZAS) The seeds of the crop plants to be treated are laid out in sandy loam in wood fiber or plastic pots (diameter ˜4 cm), covered with soil and grow in a greenhouse under good conditions for germination and growth. The trial plants were treated at the early leaf stage (BBCH10—BBCH12). In the course of this, the inventive compounds of the general formula (I) formulated in the form of wettable powders (WP) were sprayed onto the above-ground parts of the plants as an aqueous suspension with a water application rate corresponding to 800 l/ha with addition of wetting agent (e.g. 0.2% agrotin) in the specified dose. This was followed by the application of the herbicide. For this purpose, mesosulfuron-methyl, formulated in the form of water-dispersible granules (WG), was sprayed onto the above-ground parts of the plants in the form of an aqueous dispersion with a water application rate corresponding to 800 l/ha with addition of wetting agent (e.g. 0.2% agrotin) in a dose of 20 g/ha. The dose of the herbicide was chosen here such that it causes visually apparent damage (min. 30%, max. 75%) compared to untreated crop plants at the evaluation time on a control group of crop plants without safener treatment that were included in the same trial. After application, the plants were cultivated under good growth conditions in a greenhouse. The damage was visually assessed 14-21 days after application. The damage effect was assessed visually on a scale of 0-100% by comparison with untreated control plants, and averaged over 2-3 repeats per treatment. Examples: • 0%=no noticeable effect compared to the untreated plant • 20%=the treated plant population has 20% damage compared to the untreated control population (e.g. growth height, leaf damage, etc.) • 100%=treated plants completely damaged/killed.

[2] = system: summer barley (HORVS; cv. Montoya); experiment: Absolute action: reduction of damage by mesosulfuron-methyl on summer barley, greenhouse post-emergence; format: in vivo; details: for Absolute reduction in damage (difference): mesosulfuron-methyl 20 g/ha, damage without minus with safener; for Herbicide damage with compound of the formula (I) (%): then mesosulfuron-methyl 20 g/ha, visual 0-100% scale, 14-21 days after application
Procedure: as §1, with “2.2 Absolute Action” for “2.1 Absolute Action”, “on Summer Barley (HORVS) The seeds” for “on Summer Wheat (TRZAS) The seeds”, “treated are aid out in” for “treated are laid out in”, “soil and grown in a” for “soil and grow in a”, “leaf stage (BBCE10-BBCH12). In the” for “leaf stage (BBCH10—BBCH12). In the”, “control population (e.g.: growth height,” for “control population (e.g. growth height,”

| SMILES | Absolute reduction in herbicide damage (damage without safener minus damage with safener) ([1]; safener 125 g a.i./ha) [%] | Herbicide damage with compound of the formula (I) ([1]; safener 125 g a.i./ha) [%] | Absolute reduction in damage (difference) ([2]; safener 125 g a.i./ha) [%] | Herbicide damage with compound of the formula (I) (%) ([2]; safener 125 g a.i./ha) | Absolute reduction in herbicide damage (damage without safener minus damage with safener) ([1]; safener 500 g a.i./ha) [%] | Herbicide damage with compound of the formula (I) ([1]; safener 500 g a.i./ha) [%] | Absolute reduction in damage (difference) ([2]; safener 500 g a.i./ha) [%] | Herbicide damage with compound of the formula (I) (%) ([2]; safener 500 g a.i./ha) | further results |
| --- | --- | --- | --- | --- | --- | --- | --- | --- | --- |
| CCOC(=O)COc1nc(-c2ccc(Cl)cc2F)n(-c2ccc(Cl)cc2F)n1 [I.47-49] | 30 | 30 | 50 | 10 |  |  |  |  |  |
| CCOC(=O)COc1nc(-c2ccc(F)cc2F)n(-c2ccc(Cl)cc2)n1 [I.41-7] |  |  |  |  |  |  |  |  | Absolute reduction in herbicide damage (damage without safener minus damage with safener) ([1]; safener 250 g/ha): 23%; Herbicide damage with compound of the formula (I) ([1]; safener 250 g/ha): 20%; Absolute reduction in damage (difference) ([2]; safener 1000 g a.i./ha): 40%; Herbicide damage with compound of the formula (I) (%) ([2]; safener 1000 g a.i./ha): 20% |
| O=C(O)COc1nc(-c2ccccc2)n(-c2ccc(F)cc2)n1 [I.3-4] |  |  |  |  |  |  |  |  | Absolute reduction in herbicide damage (damage without safener minus damage with safener) ([1]; safener 250 g/ha): 20%; Herbicide damage with compound of the formula (I) ([1]; safener 250 g/ha): 30%; Absolute reduction in herbicide damage (damage without safener minus damage with safener) ([1]; safener 1000 g/ha): 27%; Herbicide damage with compound of the formula (I) ([1]; safener 1000 g/ha): 23% |
| O=C(O)COc1nc(-c2ccccc2F)n(-c2ccc(Cl)cc2Cl)n1 [I.6-32] |  |  |  |  |  |  |  |  | Absolute reduction in damage (difference) ([2]; safener 250 g a.i./ha): 20%; Herbicide damage with compound of the formula (I) (%) ([2]; safener 250 g a.i./ha): 40% |
| COC(=O)COc1nc(-c2ccc(Cl)cc2F)n(-c2ccc(Cl)cc2Cl)n1 [I.46-32] | 43 | 10 | 27 | 33 | 46 | 7 | 33 | 27 |  |
| O=C(O)COc1nc(-c2ccc(Cl)cc2F)n(-c2ccc(Cl)cc2F)n1 [I.48-49] | 37 | 23 | 40 | 20 | 40 | 20 | 60 | 0 |  |
| O=C(O)COc1nc(-c2ccc(Cl)cc2Cl)n(-c2ccc(Cl)cc2Cl)n1 [I.45-32] | 23 | 40 |  |  | 30 | 33 |  |  |  |
| O=C(O)COc1nc(-c2ccc(Cl)cc2)n(-c2ccc(F)cc2F)n1 [I.21-38] |  |  |  |  |  |  |  |  | Absolute reduction in herbicide damage (damage without safener minus damage with safener) ([1]; safener 1000 g/ha): 23%; Herbicide damage with compound of the formula (I) ([1]; safener 1000 g/ha): 20%; Absolute reduction in damage (difference) ([2]; safener 250 g a.i./ha): 30%; Herbicide damage with compound of the formula (I) (%) ([2]; safener 250 g a.i./ha): 30%; Absolute reduction in damage (difference) ([2]; safener 1000 g a.i./ha): 40%; Herbicide damage with compound of the formula (I) (%) ([2]; safener 1000 g a.i./ha): 20% |
| COC(=O)COc1nc(-c2ccc(Cl)cc2F)n(-c2ccc(Cl)cc2F)n1 [I.46-49] | 43 | 10 | 40 | 20 |  |  | 43 | 17 |  |
| O=C(O)COc1nc(-c2ccc(Cl)cc2F)n(-c2ccccc2F)n1 [I.48-2] | 27 | 3 | 20 | 27 |  |  | 27 | 20 |  |
| O=C(O)COc1nc(-c2ccc(Cl)cc2Cl)n(-c2ccc(F)cc2F)n1 [I.45-38] | 33 | 30 | 30 | 30 | 43 | 20 | 40 | 20 |  |
| O=C(O)COc1nc(-c2ccc(Cl)cc2Cl)n(-c2ccc(Cl)cc2F)n1 [I.45-49, {[1-(4-Chloro-2-fluorophenyl)-5-(2,4-dichlorophenyl)-1H-1,2,4-triazol-3-yl]oxy}acetic acid] | 20 | 43 | 20 | 40 | 23 | 40 | 30 | 30 |  |
| COC(=O)COc1nc(-c2ccc(Cl)cc2F)n(-c2ccc(F)cc2F)n1 [I.46-38] | 33 | 30 | 40 | 23 |  |  | 43 | 20 |  |
| O=C(O)COc1nc(-c2ccc(F)cc2)n(-c2ccc(Cl)cc2)n1 [I.12-7] |  |  |  |  |  |  |  |  | Absolute reduction in herbicide damage (damage without safener minus damage with safener) ([1]; safener 250 g/ha): 23%; Herbicide damage with compound of the formula (I) ([1]; safener 250 g/ha): 20%; Absolute reduction in damage (difference) ([2]; safener 1000 g a.i./ha): 20%; Herbicide damage with compound of the formula (I) (%) ([2]; safener 1000 g a.i./ha): 40% |
| CCOC(=O)COc1nc(-c2ccccc2)n(-c2ccc(F)cc2F)n1 [I.2-38] |  |  |  |  |  |  |  |  | Absolute reduction in herbicide damage (damage without safener minus damage with safener) ([1]; safener 1000 g/ha): 20%; Herbicide damage with compound of the formula (I) ([1]; safener 1000 g/ha): 30% |
| CCOC(=O)COc1nc(-c2ccc(Cl)cc2)n(-c2ccccc2)n1 [I.20-1] |  |  |  |  |  |  |  |  | Absolute reduction in herbicide damage (damage without safener minus damage with safener) ([1]; safener 250 g/ha): 30%; Herbicide damage with compound of the formula (I) ([1]; safener 250 g/ha): 13%; Absolute reduction in herbicide damage (damage without safener minus damage with safener) ([1]; safener 1000 g/ha): 36%; Herbicide damage with compound of the formula (I) ([1]; safener 1000 g/ha): 7% |
| CCOC(=O)COc1nc(-c2ccccc2)n(-c2ccc(F)cc2)n1 [I.2-4] |  |  |  |  |  |  |  |  | Absolute reduction in herbicide damage (damage without safener minus damage with safener) ([1]; safener 1000 g/ha): 20%; Herbicide damage with compound of the formula (I) ([1]; safener 1000 g/ha): 30% |
| O=C(O)COc1nc(-c2ccc(Cl)cc2Cl)n(-c2ccccc2F)n1 [I.45-2] |  |  |  |  | 20 | 30 |  |  |  |
| COc1ccccc1-c1nc(OCC(=O)O)nn1-c1ccccc1F [I.24-2] |  |  |  |  | 20 | 30 |  |  |  |
| CCOC(=O)COc1nc(-c2ccc(F)cc2)n(-c2ccc(F)cc2F)n1 [I.11-38] |  |  |  |  |  |  |  |  | Absolute reduction in herbicide damage (damage without safener minus damage with safener) ([1]; safener dose not given): 20%; Herbicide damage with compound of the formula (I) ([1]; safener dose not given): 30% |
| CCOC(=O)COc1nc(-c2ccccc2F)n(-c2ccc(Cl)cc2Cl)n1 [I.5-32] |  |  |  |  |  |  |  |  | Absolute reduction in herbicide damage (damage without safener minus damage with safener) ([1]; safener 1000 g/ha): 27%; Herbicide damage with compound of the formula (I) ([1]; safener 1000 g/ha): 30% |
| CCOC(=O)COc1nc(-c2ccc(F)cc2F)n(-c2ccc(F)cc2F)n1 [I.41-38] |  |  |  |  |  |  |  |  | Absolute reduction in damage (difference) ([2]; safener 250 g a.i./ha): 23%; Herbicide damage with compound of the formula (I) (%) ([2]; safener 250 g a.i./ha): 30%; Absolute reduction in damage (difference) ([2]; safener 1000 g a.i./ha): 23%; Herbicide damage with compound of the formula (I) (%) ([2]; safener 1000 g a.i./ha): 30% |
